Measurements as given in patent US4305951A, “Novel amino derivatives of 5-(2-hydroxystyryl)-isoxazole, their preparation and therapeutic formulations containing these compounds” (BASF Aktiengesellschaft, priority 1979, dated 1981).
Entries after “also recorded” stand apart in the source; their conditions may differ.

Tests used:
[1] = system: isoproterenol-induced tachycardia; assay: β-Sympatholytic action: inhibition of isoproterenol-induced tachycardia in pithed rats; conditions: for ED50: Rattus norvegicus, read-out: ED 50% (dose which inhibits the isoproterenol-induced increase in pulse rate by 50%)
in vivo = conditions: for LD50: ip
From the text: Intraperitoneal administration.

[2] = system: blood pressure in the carotid artery; assay: Hypotensive action on narcotized rats; format: in vivo, rat (Sprague-Dawley); conditions: for ED20: Rattus norvegicus, read-out: ED 20% (dose which lowers the mean carotid blood pressure by 20%)
Method: To test the hypotensive action, the compounds are administered intravenously to male Sprague-Dawley rats (weight: 230-280 g) under urethane narcosis (1.78 g/kg administered intraperitineally).
The blood pressure in the carotid artery is measured by means of a Statham transducer. The ED 20% is determined as the dose which lowers the mean carotid pressure by 20%.
^(2) Rats. Urethane narcosis. Intravenous administration. ED 20% =
dose [in mg/kg] which lowers the blood pressure by 20%.

[3] = urethane narcosis, intravenous administration

SMILES | ED50 ([1]; iv) | β-sympatholytic activity compared with propranolol (in words) ([1]; pithed rats, intravenous) | R.A. = relative activity (β-sympatholytic) ([1]; rat, in vivo, iv) | Q: lethal dose as multiple of the β-sympatholytically effective dose (in vivo; mouse, in vivo) | selectivity ratio (in vivo; mouse, in vivo) | LD50 (in vivo; mouse, in vivo) | ED20 [2, 3] | Q: lethal dose as multiple of the β-sympatholytically effective dose (in vivo; LD 50 mice i.p. / ED 50% pithed rats i.v.) | ED 20% (dose which lowers the mean carotid blood pressure by 20%) [2, 3] | R.A. = relative activity (β-sympatholytic) ([1]; Propranolol = 1.00, pithed rats, intravenous) | increase of blood pressure ([2]; 2.15 mg/kg intravenous, urethane narcosis) | lowering of blood pressure ([2]; 4.64 mg/kg intravenous, urethane narcosis, average) | animals that died ([2]; 10 mg/kg intravenous, urethane narcosis) | hypotensive action (in words) ([2]; acute test, intravenous)
Cc1cc(/C=C/c2ccccc2OCC(O)CNC(C)CCc2ccc(O)cc2)on1 (centres unmarked) [Example 3, 3-methyl-5-[2-[2-hydroxy-3-(3-(4-hydroxyphenyl)-1-methylpropylamino)-propoxy]-styryl]-isoxazole] | 0.0106 mg/kg | corresponds approximately to that of propranolol | 1.20 | 24,600 | 24600 | 261 mg/kg | 0.49 mg/kg |  |  |  |  |  |  | 
COc1ccc(CCNCC(O)COc2ccccc2/C=C/c2cc(C)no2)cc1OC (centres unmarked) [Example 4, 3-methyl-5-[2-[2-hydroxy-3-(2-(3,4-dimethoxyphenyl)-1-ethylamino)-propoxy]-styryl]-isoxazole] | 0.0215 mg/kg | corresponds approximately to that of propranolol | 0.59 |  | 29900 | 642 mg/kg | 0.7 mg/kg | 29,900 | 0.70 mg/kg |  |  |  |  | 
CC(C)NCC(O)COc1cccc2ccccc12 (centres unmarked) [Propranolol, propranolol] |  |  |  |  |  |  |  |  |  | 1.00 | 11% | 36% | 2 out of 6 | does not have a hypotensive effect in acute test conditions; also recorded: up to doses of 2.15 mg/kg, does not lower the blood pressure
